Source: the NIST ThermoML archive (doi:10.1016/j.jct.2017.01.016)

Test: xn = mol fraction of the nth substance listed
Details: 101 kPa, Liquid; for viscosity: Capillary tube (Ostwald / Ubbelohde) method; for speed of sound: Frequency=3 MHz, Linear variable-path acoustic interferometer

C1COCCO1 [1,4-dioxane] + Cc1ccccc1
Details	speed of sound [m/s]	viscosity [mPa·s]
293.15 K, x1 = 0.0688	1330.1	0.6346
293.15 K, x1 = 0.1373	1331.5	0.6812
293.15 K, x1 = 0.2112	1333	0.732
293.15 K, x1 = 0.2858	1334.8	0.784
293.15 K, x1 = 0.3552	1336.5	0.8327
293.15 K, x1 = 0.4361	1338.6	0.8901
293.15 K, x1 = 0.5064	1340.7	0.9405
293.15 K, x1 = 0.5819	1343.2	0.9951
293.15 K, x1 = 0.6506	1346	1.045
293.15 K, x1 = 0.7212	1349.1	1.097
293.15 K, x1 = 0.7903	1352.5	1.148
293.15 K, x1 = 0.864	1356.9	1.203
293.15 K, x1 = 0.9336	1361.8	1.256
293.15 K, x1 = 1	1367.2	1.306
298.15 K, x1 = 0.0688	1308.4	0.5952
298.15 K, x1 = 0.1373	1309.5	0.6366
298.15 K, x1 = 0.2112	1310.9	0.682
298.15 K, x1 = 0.2858	1312.4	0.7282
298.15 K, x1 = 0.3552	1313.9	0.7716
298.15 K, x1 = 0.4361	1315.9	0.8229
298.15 K, x1 = 0.5064	1317.9	0.8679
298.15 K, x1 = 0.5819	1320.4	0.9166
298.15 K, x1 = 0.6506	1323.2	0.9613
298.15 K, x1 = 0.7212	1326.3	1.008
298.15 K, x1 = 0.7903	1329.8	1.053
298.15 K, x1 = 0.864	1334.2	1.103
298.15 K, x1 = 0.9336	1339.1	1.15
298.15 K, x1 = 1	1344.7	1.195
303.15 K, x1 = 0.0688	1286.3	0.56
303.15 K, x1 = 0.1373	1287.2	0.597
303.15 K, x1 = 0.2112	1288.4	0.6373
303.15 K, x1 = 0.2858	1289.7	0.6785
303.15 K, x1 = 0.3552	1291.2	0.7173
303.15 K, x1 = 0.4361	1293.2	0.7631
303.15 K, x1 = 0.5064	1295.2	0.8033
303.15 K, x1 = 0.5819	1297.8	0.8469
303.15 K, x1 = 0.6506	1300.6	0.887
303.15 K, x1 = 0.7212	1303.9	0.9286
303.15 K, x1 = 0.7903	1307.5	0.9696
303.15 K, x1 = 0.864	1312.2	1.014
303.15 K, x1 = 0.9336	1317.3	1.056
303.15 K, x1 = 1	1323.1	1.096
308.15 K, x1 = 0.0688	1264.8	0.5284
308.15 K, x1 = 0.1373	1265.5	0.5619
308.15 K, x1 = 0.2112	1266.5	0.5984
308.15 K, x1 = 0.2858	1267.7	0.6357
308.15 K, x1 = 0.3552	1269	0.6709
308.15 K, x1 = 0.4361	1270.9	0.7124
308.15 K, x1 = 0.5064	1272.9	0.7489
308.15 K, x1 = 0.5819	1275.4	0.7885
308.15 K, x1 = 0.6506	1278.2	0.8249
308.15 K, x1 = 0.7212	1281.6	0.8627
308.15 K, x1 = 0.7903	1285.3	0.8998
308.15 K, x1 = 0.864	1290.1	0.9399
308.15 K, x1 = 0.9336	1295.3	0.978
308.15 K, x1 = 1	1301.2	1.014
313.15 K, x1 = 0.0688	1242.8	0.4969
313.15 K, x1 = 0.1373	1243.4	0.5278
313.15 K, x1 = 0.2112	1244.3	0.5615
313.15 K, x1 = 0.2858	1245.4	0.596
313.15 K, x1 = 0.3552	1246.7	0.6284
313.15 K, x1 = 0.4361	1248.6	0.6666
313.15 K, x1 = 0.5064	1250.6	0.7003
313.15 K, x1 = 0.5819	1253.2	0.7368
313.15 K, x1 = 0.6506	1256	0.7702
313.15 K, x1 = 0.7212	1259.4	0.805
313.15 K, x1 = 0.7903	1263.3	0.8393
313.15 K, x1 = 0.864	1268.2	0.8762
313.15 K, x1 = 0.9336	1273.6	0.9114
313.15 K, x1 = 1	1279.7	0.945
318.15 K, x1 = 0.0688	1221	0.467
318.15 K, x1 = 0.1373	1221.5	0.4958
318.15 K, x1 = 0.2112	1222.3	0.5272
318.15 K, x1 = 0.2858	1223.3	0.5593
318.15 K, x1 = 0.3552	1224.6	0.5895
318.15 K, x1 = 0.4361	1226.5	0.6251
318.15 K, x1 = 0.5064	1228.6	0.6564
318.15 K, x1 = 0.5819	1231.2	0.6903
318.15 K, x1 = 0.6506	1234.1	0.7215
318.15 K, x1 = 0.7212	1237.6	0.7539
318.15 K, x1 = 0.7903	1241.6	0.7857
318.15 K, x1 = 0.864	1246.7	0.82
318.15 K, x1 = 0.9336	1252.3	0.8527
318.15 K, x1 = 1	1258.6	0.884

C1COCCO1 [1,4-dioxane] + c1ccccc1
Details	speed of sound [m/s]	viscosity [mPa·s]
293.15 K, x1 = 0.0713	1329.8	0.6955
293.15 K, x1 = 0.1403	1334.5	0.7421
293.15 K, x1 = 0.2123	1339.4	0.7905
293.15 K, x1 = 0.2809	1343.6	0.8364
293.15 K, x1 = 0.3528	1347.9	0.8842
293.15 K, x1 = 0.4195	1351.5	0.9283
293.15 K, x1 = 0.5037	1355.8	0.9838
293.15 K, x1 = 0.58	1359.2	1.034
293.15 K, x1 = 0.6504	1362.2	1.08
293.15 K, x1 = 0.7197	1364.2	1.125
293.15 K, x1 = 0.7822	1365.4	1.165
293.15 K, x1 = 0.8561	1366.9	1.213
293.15 K, x1 = 0.9287	1367.4	1.26
293.15 K, x1 = 1	1367.2	1.306
298.15 K, x1 = 0.0713	1304	0.6485
298.15 K, x1 = 0.1403	1308.1	0.6905
298.15 K, x1 = 0.2123	1312.5	0.7339
298.15 K, x1 = 0.2809	1316.5	0.775
298.15 K, x1 = 0.3528	1320.5	0.8179
298.15 K, x1 = 0.4195	1324	0.8574
298.15 K, x1 = 0.5037	1328.2	0.907
298.15 K, x1 = 0.58	1332	0.9517
298.15 K, x1 = 0.6504	1335.1	0.9928
298.15 K, x1 = 0.7197	1337.5	1.033
298.15 K, x1 = 0.7822	1339.8	1.069
298.15 K, x1 = 0.8561	1342	1.112
298.15 K, x1 = 0.9287	1343.7	1.154
298.15 K, x1 = 1	1344.7	1.195
303.15 K, x1 = 0.0713	1279.4	0.6068
303.15 K, x1 = 0.1403	1283	0.6446
303.15 K, x1 = 0.2123	1287	0.6836
303.15 K, x1 = 0.2809	1290.6	0.7206
303.15 K, x1 = 0.3528	1294.2	0.7591
303.15 K, x1 = 0.4195	1297.6	0.7946
303.15 K, x1 = 0.5037	1301.8	0.839
303.15 K, x1 = 0.58	1305.7	0.879
303.15 K, x1 = 0.6504	1309.2	0.9157
303.15 K, x1 = 0.7197	1312.3	0.9517
303.15 K, x1 = 0.7822	1315.1	0.9841
303.15 K, x1 = 0.8561	1318.2	1.022
303.15 K, x1 = 0.9287	1320.8	1.059
303.15 K, x1 = 1	1323.1	1.096
308.15 K, x1 = 0.0713	1255.4	0.5686
308.15 K, x1 = 0.1403	1258.7	0.6033
308.15 K, x1 = 0.2123	1262	0.6392
308.15 K, x1 = 0.2809	1265.1	0.673
308.15 K, x1 = 0.3528	1268.7	0.7082
308.15 K, x1 = 0.4195	1272	0.7406
308.15 K, x1 = 0.5037	1276.1	0.7812
308.15 K, x1 = 0.58	1280.2	0.8176
308.15 K, x1 = 0.6504	1284	0.851
308.15 K, x1 = 0.7197	1287.4	0.8837
308.15 K, x1 = 0.7822	1290.8	0.9131
308.15 K, x1 = 0.8561	1294.5	0.9477
308.15 K, x1 = 0.9287	1297.9	0.9815
308.15 K, x1 = 1	1301.2	1.014
313.15 K, x1 = 0.0713	1231.7	0.532
313.15 K, x1 = 0.1403	1234.3	0.5644
313.15 K, x1 = 0.2123	1237.2	0.5979
313.15 K, x1 = 0.2809	1240.5	0.6294
313.15 K, x1 = 0.3528	1244	0.6621
313.15 K, x1 = 0.4195	1247.1	0.6921
313.15 K, x1 = 0.5037	1251.3	0.7297
313.15 K, x1 = 0.58	1255.5	0.7634
313.15 K, x1 = 0.6504	1259.4	0.7943
313.15 K, x1 = 0.7197	1263.5	0.8245
313.15 K, x1 = 0.7822	1266.8	0.8516
313.15 K, x1 = 0.8561	1271.2	0.8835
313.15 K, x1 = 0.9287	1275.3	0.9146
313.15 K, x1 = 1	1279.7	0.945
318.15 K, x1 = 0.0713	1209.6	0.4993
318.15 K, x1 = 0.1403	1211.9	0.5297
318.15 K, x1 = 0.2123	1214.5	0.5611
318.15 K, x1 = 0.2809	1217.2	0.5906
318.15 K, x1 = 0.3528	1220.5	0.6211
318.15 K, x1 = 0.4195	1223.6	0.6492
318.15 K, x1 = 0.5037	1227.9	0.6842
318.15 K, x1 = 0.58	1232.1	0.7156
318.15 K, x1 = 0.6504	1236	0.7443
318.15 K, x1 = 0.7197	1240.1	0.7724
318.15 K, x1 = 0.7822	1243.9	0.7975
318.15 K, x1 = 0.8561	1248.8	0.8271
318.15 K, x1 = 0.9287	1253.6	0.8559
318.15 K, x1 = 1	1258.6	0.884
